Experiment [1] addresses T1, full-length recombinant human NEK7 (Homo sapiens, UniProt Q8TDX7).
T1 construct: full-length recombinant human NEK7; GST (N); purchased SignalChem NO9-10G; host or cells: Sf9 insect cells (baculovirus)
As to the kind of experiment: NEK7 enzymatic assay. The experiment is classed as biochemical. The note with it: recombinant human NEK7, casein substrate, radiolabelled ATP. The method in brief: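 Full-length GST-tagged human NEK7 from Sf9 cells (assay concentration 70 nM) was used with casein (assay concentration 20 μM) in Hepes pH 7.5 buffer, 1% DMSO, and compound (3-fold dilutions, 10 μM to 0.5 nM) was preincubated 20 min at room temperature. Radiolabelled ATP was added for 2 h, phosphorylation was read on P81 paper, and IC50 was fitted from % activity remaining versus vehicle.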

The test system of experiment [2] is IL-1β release. As to the kind of experiment: IL-1β release assay (THP-1 cells, PMA, LPS, nigericin). Conditions: Homo sapiens, LPS 250 ng/mL, nigericin 20 μM, cleaved IL-1β in media. The experiment is classed as cell-based. The protocol: Approximately 1.5 million THP-1 cells were plated in each well of a 6-well TC plate and incubated with 40 nM PMA in RPMI (10% FBS, 1% Penstrep) for 24 hours. The media was then removed and cells were rested in RPMI (10% FBS, 1% Penstrep) for 24 hours after which time the media was removed and cells were pre-treated for 2 hours with various concentrations of compounds of interest (typically serial 3-fold dilution in RPMI+5% FBS, concentrations ranging from 1 μM to 0.5 nM) in RPMI (5% FBS). The media was again removed and cells were incubated with 250 ng/mL LPS and compounds of interest (concentrations as above) in RMPI (5% FBS) for 2 hours. The media was removed for a last time and cells were incubated with 20 μM nigericin and compounds of interest (concentrations as above) in Opti-MEM for 30 minutes. Cell media was then collected and the amount of cleaved IL-1β was determined using a JESS instrument (Protein Simple) and standard protocols. Cleaved Il-1β antibody was obtained from Cell Signaling (catalogue #83186S) and was used at 1:20 dilution in antibody diluent 2. Protein Simple 1× anti-Rabbit HRP secondary antibody was used along with Protein Simple luminol and peroxide for chemiluminescent detection. Primary antibody incubation time was increased from 30 minutes to 60 minutes.

The source of these data is patent publication US20240317758A1 (Halia Therapeutics, Inc., priority 2021, published 2024).

T1 sequence (Q8TDX7 whole entry): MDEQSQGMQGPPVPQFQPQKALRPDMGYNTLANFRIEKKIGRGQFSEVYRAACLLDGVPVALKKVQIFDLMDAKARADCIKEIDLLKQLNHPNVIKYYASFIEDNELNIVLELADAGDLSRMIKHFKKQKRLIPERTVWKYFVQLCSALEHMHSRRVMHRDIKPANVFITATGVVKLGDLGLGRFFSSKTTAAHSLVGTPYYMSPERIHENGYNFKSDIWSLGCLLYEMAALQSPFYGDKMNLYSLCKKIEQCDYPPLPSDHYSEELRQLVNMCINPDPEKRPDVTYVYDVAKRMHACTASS

The IC50 is the concentration that gives 50% inhibition. On to `CN1CCN(Cc2ccc(NC(=O)Nc3ccc(-c4nn(C5CC5)c5ncnc(N)c45)cc3F)cc2C(F)(F)F)CC1` [Example I-28, 1-(4-(4-amino-1-cyclopropyl-1H-pyrazolo[3,4-d]pyrimidin-3-yl)-2-fluorophenyl)-3-(4-((4-methylpiperazin-1-yl)methyl)-3-(trifluoromethyl)phenyl)urea], for which the values for the concentration for half-maximal inhibition (IC50) in experiment [1] and in experiment [2] were less than 100 nM and less than 50 nM, respectively.

In the case of `CN1CCN(Cc2ccc(NC(=O)Nc3ccc(-c4nn(CC(C)(C)O)c5ncnc(N)c45)cc3F)cc2C(F)(F)F)CC1` [Example I-29, 1-(4-(4-amino-1-(2-hydroxy-2-methylpropyl)-1H-pyrazolo[3,4-d]pyrimidin-3-yl)-2-fluorophenyl)-3-(4-((4-methylpiperazin-1-yl)methyl)-3-(trifluoromethyl)phenyl)urea], the values for the 50% inhibitory concentration (IC50) in experiment [1] and in experiment [2] were less than 100 nM and less than 50 nM, respectively.

As for `Nc1ncnc2c1c(-c1ccc(NC(=O)Nc3ccc(CN4CCN(CCO)CC4)c(C(F)F)c3)c(F)c1)cn2C1CC1` [Example I-72, 1-(4-(4-amino-7-cyclopropyl-7H-pyrrolo[2,3-d]pyrimidin-5-yl)-2-fluorophenyl)-3-(3-(difluoromethyl)-4-((4-(2-hydroxyethyl)piperazin-1-yl)methyl)phenyl)urea], the IC50 in experiment [1] is less than 100 nM; in experiment [2] it was 50 to 250 nM.

On to `CN1CCC(Oc2ccc(NC(=O)Nc3ccc(-c4cn(C5CC5)c5ncnc(N)c45)cc3F)cc2C(F)(F)F)C(F)C1` (single isomer, unassigned) [Example I-90, 1-(4-(4-amino-7-cyclopropyl-7H-pyrrolo[2,3-d]pyrimidin-5-yl)-2-fluorophenyl)-3-(4-((3-fluoro-1-methylpiperidin-4-yl)oxy)-3-(trifluoromethyl)phenyl)urea], for which the IC50 is less than 100 nM in experiment [1] and less than 50 nM in experiment [2].

On to `CCN1CCN(Cc2ccc(NC(=O)Nc3ccc(-c4nn(C5CC5)c5ncnc(N)c45)cc3F)cc2C(F)(F)F)CC1` [Example I-50, 1-(4-(4-amino-1-cyclopropyl-1H-pyrazolo[3,4-d]pyrimidin-3-yl)-2-fluorophenyl)-3-(4-((4-ethylpiperazin-1-yl)methyl)-3-(trifluoromethyl)phenyl)urea], for which the results for the IC50 in experiment [1] and in experiment [2] were less than 100 nM and less than 50 nM, respectively.

Regarding `CN1CCN(Cc2ccc(NC(=O)Nc3ccc(-c4cn(C5CCN(S(=O)(=O)C6CC6)CC5)c5ncnc(N)c45)cc3F)cc2C(F)(F)F)CC1` [Example I-102, 1-(4-(4-amino-7-(1-(cyclopropylsulfonyl)piperidin-4-yl)-7H-pyrrolo[2,3-d]pyrimidin-5-yl)-2-fluorophenyl)-3-(4-((4-methylpiperazin-1-yl)methyl)-3-(trifluoromethyl)phenyl)urea], the IC50 in experiment [1] is less than 100 nM; in experiment [2], 50 to 250 nM.

Consider `CC(=O)N1CCC(Oc2ccc(NC(=O)Nc3ccc(-c4cn(C5CC5)c5ncnc(N)c45)cc3F)cc2C(F)(F)F)CC1` [Example I-82, 1-(4-((1-acetylpiperidin-4-yl)oxy)-3-(trifluoromethyl)phenyl)-3-(4-(4-amino-7-cyclopropyl-7H-pyrrolo[2,3-d]pyrimidin-5-yl)-2-fluorophenyl)urea], for which the IC50 is 100 to 500 nM in experiment [1] and 250 to 1000 nM in experiment [2].

As for `CN1CCN(Cc2ccc(NC(=O)Nc3ccc(-c4cn(C5CC5)c5ncnc(N)c45)cc3F)cc2C(F)(F)F)CC1` [Example I-34, 1-(4-(4-amino-7-cyclopropyl-7H-pyrrolo[2,3-d]pyrimidin-5-yl)-2-fluorophenyl)-3-(4-((4-methylpiperazin-1-yl)methyl)-3-(trifluoromethyl)phenyl)urea], the IC50 in experiment [1] was less than 100 nM; in experiment [2] it was less than 50 nM.

Turning to `Nc1ncnc2c1c(-c1ccc(NC(=O)Nc3ccc(CN4CCNCC4)c(C(F)(F)F)c3)c(F)c1)cn2C1CC1` [Example I-79, 1-(4-(4-amino-7-cyclopropyl-7H-pyrrolo[2,3-d]pyrimidin-5-yl)-2-fluorophenyl)-3-(4-(piperazin-1-ylmethyl)-3-(trifluoromethyl)phenyl)urea], the IC50 in experiment [1] is less than 100 nM; in experiment [2], 50 to 250 nM.

As for `CN1CCN(Cc2ccc(NC(=O)Nc3ccc(-c4cn(C5CCN(C)C5)c5ncnc(N)c45)cc3F)cc2C(F)(F)F)CC1` (stereo not shown) [Example I-20, 1-(4-(4-amino-7-(1-methylpyrrolidin-3-yl)-7H-pyrrolo[2,3-d]pyrimidin-5-yl)-2-fluorophenyl)-3-(4-((4-methylpiperazin-1-yl)methyl)-3-(trifluoromethyl)phenyl)urea], the IC50 in experiment [1] was less than 100 nM; in experiment [2], less than 50 nM.

With `CN1CCC(Oc2ccc(NC(=O)Nc3ccc(-c4cn(C5CC5)c5ncnc(N)c45)cc3F)cc2C(F)(F)F)CC1` [Example I-47, 1-(4-(4-amino-7-cyclopropyl-7H-pyrrolo[2,3-d]pyrimidin-5-yl)-2-fluorophenyl)-3-(4-((1-methylpiperidin-4-yl)oxy)-3-(trifluoromethyl)phenyl)urea], the values for the IC50 in experiment [1] and in experiment [2] were less than 100 nM and less than 50 nM, respectively.
